Reference: US20110178105A1, “CLINICAL BENEFITS OF EICOSAPENTAENOIC ACID IN HUMANS” (E.I. DU PONT DE NEMOURS AND COMPANY, priority 2010, published 2011)
“And” between values parts separate entries of the source, which are not always exact repeats. Equal entries are not always repeated.

Key:
[1] = Clinical study: fasting serum lipids, lipoproteins and apolipoproteins (automated analyzer); type: in vivo, human; conditions: 6 weeks; for HDL C, 6-Week Change (%) / HDL C, Final / LDL C, 6-Week Change (%) / LDL C, Final / Lp(a), 6-Week Change (%) / Lp(a), Final / Total Cholesterol, 6-Week Change (%) / Total Cholesterol, Final / Triglyceride, 6-Week Change (%) / Triglyceride, Final / apoA-I, 6-Week Change (%) / apoA-I, Final / apoB, 6-Week Change (%) / apoB, Final / sdLDL, 6-Week Change (%) / sdLDL, Final: Fast
Description: At visit 2, subjects were again asked to fast for 12 hours, and information about subject characteristics including all vital signs, recent illness or hospitalization, medication and supplement use, and diet information was again obtained. Subjects then had blood drawn for a metabolic profile and complete blood counts. […] Subjects (30 in each group) were then randomized equally for 6 weeks to one of four treatment arms: 1) olive oil placebo; 2) 600 mg of EPA/day; 3) 1800 mg of EPA/day; and, 4) 600 mg of DHA/day. At one week and three weeks after beginning the supplements, all study subjects were contacted by telephone and asked about any adverse effects and about their compliance, and the information on their calendars with regard to capsule use and fish intake. They were also asked about whether they had experienced any fishy aftertaste or odor, and if so, how frequent were these episodes, and how unpleasant were they? The entire process as listed above was repeated after study subjects were on the study capsules for 6 weeks at the time of the final visit. Compliance and adverse events were assessed by telephone at weeks 1 and 3 by telephone and at week 6 by questionnaire and capsule count. Over 42 days, subjects were expected to have consumed a total of 252 capsules. Compliance was calculated as a percentage of consumed capsule count/expected capsule count based on the number of days the subject was in the study. All subjects were asked to stay on their capsules until they come in for their final visit. Compliance in all participants who completed the study was based on capsule count was in excess of 85%, mean 96%.
(§1) The following laboratory measurements were carried out on an automated analyzer (Roche Diagnostics, Indianapolis, Ind.) on samples obtained in the fasting state at the randomization visit, and the final visits using frozen aliquots of serum stored at −80 degrees Celsius: 1) total cholesterol; 2) triglycerides; 3) direct high density lipoprotein [“HDL”] cholesterol; 4) direct low density lipoprotein [“LDL”] cholesterol; 5) direct small dense LDL cholesterol; 6) apolipoprotein [“apo”] B; 7) apoA-I; 8) lipoprotein (a); 9) fibrinogen; 10) high sensitivity C reactive protein [“hs-CRP”]; 11) lipoprotein associated phospholipase A2 [“Lp-PLA2”]; and, 12) insulin as previously described. See, McNamara, J. R. and Schaefer, E. J., Clin. Chim. Acta, 166:1-8 (1987); Okada, M. et al., J. Lab. Clin. Med., 132:195-201 (1998); Hirano, T. et al., J. Lipid Res., 44:2193-2201 (2003); Ai, M. et al., Am. J. Cardiol., 101:315-318 (2008); Ingelsson, E. et al., JAMA, 298:776-785 (2007); Jenner, J. L. et al., Circulation, 87:1135-1141 (1993); Schaefer, E. J. et al., Am. J. Cardiol., 95:1025-1032 (2005); McNamara, J. R. et al., Atherosclerosis, 154:229-236 (2001).
On the samples obtained 4 hours after the fat-rich meal, total cholesterol, triglycerides, direct HDL cholesterol, and direct LDL cholesterol were measured. Direct LDL cholesterol and small dense LDL cholesterol levels were measured using kits obtained from Denka-Seiken Corporation, (Tokyo, Japan), as previously described (Okada, M. et al., supra; Hirano, T. et al., supra; Ai, M. et al., supra). Remnant lipoprotein cholesterol was measured using kits obtained from Polymedco (Cortland Manor, N.Y.) and manufactured by Otsuka Corporation (Tokyo, Japan) as previously described (McNamara, J. R. et al., Atherosclerosis, supra). All lipid assays are standardized through the Lipid Research Clinics standardization program of the Centers for Disease Control (Atlanta, Ga.). All assays had between and within run coefficients of variation of <5%. Serum fatty acid profiles were analyzed by Nutrasource Diagnostics (Guelph, Ontario, Canada).

[2] = Clinical study: fasting insulin and glucose; type: in vivo, human; conditions: 6 weeks
Description: Standard chemistry tests were carried at all visits (screening, enrollment, and final study visit after an overnight fast by Quest Laboratories, Cambridge, Mass.): blood urea nitrogen, creatinine, calculated glomerular filtration rate, sodium, potassium, chloride, carbon dioxide, calcium, total protein, albumin, globulin, total bilirubin, alkaline phosphatase, liver transaminases AST and ALT, and glucose. A complete blood count was also performed at all visits and included: hemoglobin, hematocrit, red blood cell count, platelet count, white blood cell count and a white blood cell count differential. Additional tests included: prothrombin time, and measurement of thyroid function including T3, T4 and T3 uptake. All subjects entering the study were required to have: liver function tests (i.e., transaminases) of less than 3 times the upper limits of normal; bilirubin and alkaline phosphatase values in the normal range; serum creatinine levels of less than 2.5 mg/dl; hemoglobin levels over 11 g/dl; a normal prothrombin time; a fasting blood glucose below 200 mg/dl; and, a blood pressure below 170/110 mmHg. All subjects who qualified for the study and met all the screening and laboratory entry criteria were scheduled for an enrollment visit within one month of screening.
At visit 2, subjects were again asked to fast for 12 hours, and information about subject characteristics including all vital signs, recent illness or hospitalization, medication and supplement use, and diet information was again obtained. […] At one week and three weeks after beginning the supplements, all study subjects were contacted by telephone and asked about any adverse effects and about their compliance, and the information on their calendars with regard to capsule use and fish intake. They were also asked about whether they had experienced any fishy aftertaste or odor, and if so, how frequent were these episodes, and how unpleasant were they? The entire process as listed above was repeated after study subjects were on the study capsules for 6 weeks at the time of the final visit. Compliance and adverse events were assessed by telephone at weeks 1 and 3 by telephone and at week 6 by questionnaire and capsule count. Over 42 days, subjects were expected to have consumed a total of 252 capsules. Compliance was calculated as a percentage of consumed capsule count/expected capsule count based on the number of days the subject was in the study. All subjects were asked to stay on their capsules until they come in for their final visit. Compliance in all participants who completed the study was based on capsule count was in excess of 85%, mean 96%.
as §1

In the case of CCC=CCC=CCC=CCC=CC/C=C\CCCC(=O)O [EPA, cis-5,8, 11, 14, 17-eicosapentaenoic acid], the LDL cholesterol levels ([1]; FIG. 5) is reported as “did not increase”, the “HDL C, 6-Week Change (%)” value ([1]; EPA 600 mg (n = 27)) is reported as “+0.4 ± 13.7%” and the “HDL C, Final” value ([1]; EPA 600 mg (n = 27)) is reported as 57.9 ± 18.0 mg/dL. The “LDL C, 6-Week Change (%)” value ([1]; EPA 600 mg (n = 27)) was −2.5 ± 11.7%, the “LDL C, Final” value ([1]; EPA 600 mg (n = 27)) was 118.1 ± 35.8 mg/dL and the “Lp(a), 6-Week Change (%)” value ([1]; EPA 600 mg (n = 27)) was “+18.3 ± 84.8%”. For the same molecule, the “Lp(a), Final” value ([1]; EPA 600 mg (n = 27)) was 32.8 ± 32.4 mg/dL, the “Total Cholesterol, 6-Week Change (%)” value ([1]; EPA 600 mg (n = 27)) was −1.8 ± 9.5% and the “Total Cholesterol, Final” value ([1]; EPA 600 mg (n = 27)) was 199.2 ± 48.7 mg/dL. For the same molecule, the “Triglyceride, 6-Week Change (%)” value ([1]; EPA 600 mg (n = 27)) was −1.3 ± 31.6%, the “Triglyceride, Final” value ([1]; EPA 600 mg (n = 27)) was 107.0 ± 43.2 mg/dL and the “apoA-I, 6-Week Change (%)” value ([1]; EPA 600 mg (n = 27)) was −1.3 ± 12.4%. For the same molecule, the “apoA-I, Final” value ([1]; EPA 600 mg (n = 27)) was 173.6 ± 36.3 mg/dL, the “apoB, 6-Week Change (%)” value ([1]; EPA 600 mg (n = 27)) was −2.3 ± 10.9% and the “apoB, Final” value ([1]; EPA 600 mg (n = 27)) was 90.1 ± 22.8 mg/dL. For the same molecule, the “sdLDL, 6-Week Change (%)” value ([1]; EPA 600 mg (n = 27)) was −7.3 ± 18.2%, the “sdLDL, Final” value ([1]; EPA 600 mg (n = 27)) was 29.5 ± 12.0 mg/dL and the “decrease versus baseline in small dense LDL cholesterol” value ([1]; EPA 600 mg/day, p=0.0087) was 7.3%. For the same molecule, the “HDL C, 6-Week Change (%)” value ([1]; EPA 1800 mg (n = 29)) was “+2.5 ± 12.7%”, the “HDL C, Final” value ([1]; EPA 1800 mg (n = 29)) was 59.9 ± 15.7 mg/dL and the “LDL C, 6-Week Change (%)” value ([1]; EPA 1800 mg (n = 29)) was −2.0 ± 13.7%. For the same molecule, the “LDL C, Final” value ([1]; EPA 1800 mg (n = 29)) was 120.6 ± 26.8 mg/dL, the “Lp(a), 6-Week Change (%)” value ([1]; EPA 1800 mg (n = 29)) was “+5.1 ± 26.1%” and the “Lp(a), Final” value ([1]; EPA 1800 mg (n = 29)) was 32.2 ± 23.6 mg/dL. For the same molecule, the “Total Cholesterol, 6-Week Change (%)” value ([1]; EPA 1800 mg (n = 29)) was −1.7 ± 11.2%, the “Total Cholesterol, Final” value ([1]; EPA 1800 mg (n = 29)) was 201.1 ± 35.3 mg/dL and the “Triglyceride, 6-Week Change (%)” value ([1]; EPA 1800 mg (n = 29)) was −5.0% and −5.0 ± 28.6%. For the same molecule, the “Triglyceride, Final” value ([1]; EPA 1800 mg (n = 29)) was 102.8 ± 82.8 mg/dL, the “apoA-I, 6-Week Change (%)” value ([1]; EPA 1800 mg (n = 29)) was “+0.4 ± 10.8%” and the “apoA-I, Final” value ([1]; EPA 1800 mg (n = 29)) was 173.1 ± 31.3 mg/dL. The “apoB, 6-Week Change (%)” value ([1]; EPA 1800 mg (n = 29)) was −1.6 ± 12.2%, the “apoB, Final” value ([1]; EPA 1800 mg (n = 29)) was 91.7 ± 19.1 mg/dL and the “sdLDL, 6-Week Change (%)” value ([1]; EPA 1800 mg (n = 29)) was −8.8 ± 19.5%. The “sdLDL, Final” value ([1]; EPA 1800 mg (n = 29)) was 30.6 ± 9.4 mg/dL, the “decrease versus baseline in small dense LDL cholesterol” value ([1]; EPA 1800 mg/day, p=0.018) was 8.8% and the “Glucose, 6-Week Change (%)” value ([2]; EPA 600 mg (n = 27)) was “+1.3 ± 14.0%”. For the same molecule, the “Glucose, Final” value ([2]; EPA 600 mg (n = 27)) was 92.1 ± 11.0 mg/dL, the “Insulin, 6-Week Change (%)” value ([2]; EPA 600 mg (n = 27)) was “+17.4 ± 70.6%” and the “Insulin, 6-Week Change (%)” value ([2]; EPA 600 mg (n = 27), Fast) was “+17.4 ± 70.6%”. For the same molecule, the Insulin, Final ([2]; EPA 600 mg (n = 27), Fast) was 10.2 ± 7.9 µIU/mL.
With CCC=CCC=CCC=CCC=CCC=CC/C=C\CCC(=O)O [DHA, cis-4,7, 10, 13, 16, 19-docosahexaenoic acid, reference compound] the “HDL C, 6-Week Change (%)” value ([1]; DHA 600 mg (n = 28)) was “+1.3 ± 14.7%”, the “HDL C, Final” value ([1]; DHA 600 mg (n = 28)) was 62.0 ± 23.7 mg/dL and the “LDL C, Final” value ([1]; DHA 600 mg (n = 28)) was 130.3 ± 37.2 mg/dL. The “Lp(a), 6-Week Change (%)” value ([1]; DHA 600 mg (n = 28)) was “+27.7 ± 156.3%”, the “Lp(a), Final” value ([1]; DHA 600 mg (n = 28)) was 40.0 ± 40.1 mg/dL and the “Total Cholesterol, 6-Week Change (%)” value ([1]; DHA 600 mg (n = 28)) was “+2.9 ± 12.0%”. For the same molecule, the “Total Cholesterol, Final” value ([1]; DHA 600 mg (n = 28)) was 216.1 ± 44.1 mg/dL, the “Triglyceride, 6-Week Change (%)” value ([1]; DHA 600 mg (n = 28)) was −5.8 ± 30.4% and the “Triglyceride, Final” value ([1]; DHA 600 mg (n = 28)) was 104.4 ± 58.0 mg/dL. The “apoA-I, 6-Week Change (%)” value ([1]; DHA 600 mg (n = 28)) was −2.0 ± 10.5%, the “apoA-I, Final” value ([1]; DHA 600 mg (n = 28)) was 177.5 ± 43.0 mg/dL and the “apoB, 6-Week Change (%)” value ([1]; DHA 600 mg (n = 28)) was “+6.0 ± 15.6%”. The “apoB, Final” value ([1]; DHA 600 mg (n = 28)) was 97.1 ± 25.7 mg/dL, the “sdLDL, 6-Week Change (%)” value ([1]; DHA 600 mg (n = 28)) was −2.2 ± 24.7% and the “sdLDL, Final” value ([1]; DHA 600 mg (n = 28)) was 31.1 ± 13.3 mg/dL. For the same molecule, the “Insulin, 6-Week Change (%)” value ([2]; DHA 600 mg (n = 28), Fast) was “+26.7 ± 79.8%” and the Insulin, Final ([2]; DHA 600 mg (n = 28), Fast) was 8.4 ± 4.1 µIU/mL.
